In US10738028B2, “Spiro three-membered ring, spiro five-membered ring peptide deformylase inhibitor and use thereof in antibacteria and anti-tumor” (priority 2016, dated 2020):

Experiments:
Type in all cases: cell-based
[1] = tested on: HCT-116 colorectal cancer cell line; assay: CCK-8 proliferation inhibition; settings: 72 hours, CCK-8
In short: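 Cells were plated overnight at 2000 cells/well, then compound in culture medium was added at a range of final concentrations. After 72 hours in a CO2 incubator, medium was replaced with 1:10 CCK-8 solution for the read-out.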

[2] = tested on: A549 lung cancer cell line; assay: CCK-8 proliferation inhibition
In short: (§1)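 Plating at 2000 cells/well, then incubation overnight at 37° C. Next, a range of compound concentrations for 72 hours (control 1‰ DMSO). Finally, medium decanted and CCK-8 diluted 1:10 added.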

[3] = tested on: BEL-7402 liver cancer cell line; assay: CCK-8 proliferation inhibition
In short: as §1

[4] = tested on: MGC-803 gastric cancer cell line; assay: CCK-8 proliferation inhibition
In short: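 Proliferation was measured with 1:10 diluted CCK-8 after a 72-hour incubation with the inhibitors at various final concentrations, using 1‰ DMSO as the control. Cells were plated at 2000 per well. Culture media contained 10% newborn bovine serum: 1640 for Jurkat and MGC-803, F12 for PC3, DMEM high glucose for MCF-7.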

[5] = tested on: Enterococcus faecium (EFM); assay: MIC, two-fold agar dilution (CLSI), clinical isolates
In short: (§2)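 Test samples were assayed by the CLSI-recommended two-fold agar dilution method, and the minimum inhibitory concentration against each tested strain was determined.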

[6] = tested on: methicillin-sensitive Staphylococcus aureus (MSSA); assay: as above
In short: as §2

[7] = tested on: methicillin-sensitive Staphylococcus epidermidis (MSSE); assay: as above
In short: as §2

[8] = tested on: methicillin-resistant Staphylococcus epidermidis (MRSE); assay: as above
In short: as §2

[9] = tested on: Enterococcus faecalis (EFA); assay: as above
In short: as §2

[10] = tested on: Streptococcus pneoumoniae (SPN); assay: as above
In short: as §2

[11] = tested on: methicillin-resistant Staphylococcus aureus (MRSA); assay: as above
In short: as §2

[12] = tested on: Moraxella catarrhalis (BCA); assay: as above
In short: as §2

[13] = tested on: Escherichia coli (including ESBLs, non-ESBLs); assay: as above
In short: as §2

[14] = concentration of 30 μM, 72 hours, 30 µM

O=C(C[C@@H](CC1CCCC1)C(=O)N1CC2(CC2)C[C@@H]1c1nc2ccccc2[nH]1)NO [Example 76, (R)-4-((R)-6-(1H-benzimidazol-2-yl)-5-azaspiro[2.4]heptane-5-yl)-3-(cyclopentylmethyl)-N-hydroxy-4-oxobutanamide]
IC50 ([1]; Homo sapiens, HCT-116): 10.8 µM
HCT116 inhibition rate/% ([1]; concentration of 30 μM, 30 µM): 87%
IC50 ([2]; Homo sapiens, A549, 72 hours): 9.29 µM
Inhibition of proliferation, Lung cancer A549 [2, 14]: 94%
inhibition at 30 µM ([3]; Homo sapiens, Bel-7402, 72 h, concentration of 30 μM): > 50%
IC50 ([3]; Homo sapiens, Bel-7402, 72 hours): 8.58 µM
Inhibition of proliferation, Liver cancer BEL-7402 [3, 14]: 67%
inhibition at 30 µM ([4]; Homo sapiens, MGC-803, 72 h, concentration of 30 μM): > 50%
IC50 ([4]; Homo sapiens, MGC-803, 72 hours): 16.6 µM
Inhibition of proliferation, Gastric cancer MGC-803 [4, 14]: 64%
Anti-bacterial activity (MIC) ([5]; strain EFM 15-1): > 32 µg/mL
Anti-bacterial activity (MIC) ([5]; strain EFM 15-2): > 32 µg/mL
Anti-bacterial activity (MIC) ([5]; strain EFM 15-3): > 32 µg/mL
Anti-bacterial activity (MIC) ([5]; strain EFM 15-4): 16 µg/mL
Anti-bacterial activity (MIC) ([5]; strain EFM 15-5): 16 µg/mL
Anti-bacterial activity (MIC) ([5]; strain EFM 15-6): 32 µg/mL
Anti-bacterial activity (MIC), strain MSSA 15-3 ([6]; clinical isolate MSSA 15-3): > 32 µg/mL
Anti-bacterial activity (MIC), strain MSSA 15-4 ([6]; clinical isolate MSSA 15-4): > 32 µg/mL
Anti-bacterial activity (MIC), strain MSSA 15-5 ([6]; clinical isolate MSSA 15-5): > 32 µg/mL
Anti-bacterial activity (MIC), strain MSSA 15-6 ([6]; clinical isolate MSSA 15-6): > 32 µg/mL
Anti-bacterial activity (MIC), strain MSSE 15-3 ([7]; clinical isolate MSSE 15-3): > 32 µg/mL
Anti-bacterial activity (MIC), strain MSSE 15-4 ([7]; clinical isolate MSSE 15-4): > 32 µg/mL
Anti-bacterial activity (MIC), strain MSSE 15-5 ([7]; clinical isolate MSSE 15-5): > 32 µg/mL
Anti-bacterial activity (MIC), strain MSSE 15-6 ([7]; clinical isolate MSSE 15-6): > 32 µg/mL
Anti-bacterial activity (MIC), strain MRSE 15-1 ([8]; clinical isolate MRSE 15-1): > 32 µg/mL
Anti-bacterial activity (MIC), strain MRSE 15-2 ([8]; clinical isolate MRSE 15-2): > 32 µg/mL
Anti-bacterial activity (MIC), strain MRSE 15-3 ([8]; clinical isolate MRSE 15-3): > 32 µg/mL
Anti-bacterial activity (MIC), strain MRSE 15-7 ([8]; clinical isolate MRSE 15-7): > 32 µg/mL
Anti-bacterial activity (MIC) ([9]; strain EFA 15-1): > 32 µg/mL
Anti-bacterial activity (MIC) ([9]; strain EFA 15-2): > 32 µg/mL
Anti-bacterial activity (MIC) ([9]; strain EFA 15-3): > 32 µg/mL
Anti-bacterial activity (MIC) ([9]; strain EFA 15-4): > 32 µg/mL
Anti-bacterial activity (MIC) ([9]; strain EFA 15-5): > 32 µg/mL
Anti-bacterial activity (MIC) ([9]; strain EFA 15-6): > 32 µg/mL
Anti-bacterial activity (MIC) ([9]; strain EFA 15-9): > 32 µg/mL
Anti-bacterial activity (MIC) ([10]; strain SPN 16-2): 8 µg/mL
Anti-bacterial activity (MIC) ([10]; strain SPN 16-4): 4 µg/mL
Anti-bacterial activity (MIC), strain MRSA 15-1 ([11]; clinical isolate MRSA 15-1): > 32 µg/mL
Anti-bacterial activity (MIC), strain MRSA 15-2 ([11]; clinical isolate MRSA 15-2): > 32 µg/mL
Anti-bacterial activity (MIC), strain MRSA 15-3 ([11]; clinical isolate MRSA 15-3): > 32 µg/mL
Anti-bacterial activity (MIC), strain MRSA 15-4 ([11]; clinical isolate MRSA 15-4): > 32 µg/mL
Anti-bacterial activity (MIC) ([12]; strain BCA 14-1): 2 µg/mL
Anti-bacterial activity (MIC) ([12]; strain BCA 14-4): > 32 µg/mL
Anti-bacterial activity (MIC) ([12]; strain BCA 14-5): > 32 µg/mL
Anti-bacterial activity (MIC) ([12]; strain BCA 14-6): > 32 µg/mL
Anti-bacterial activity (MIC) ([12]; strain BCA 14-7): > 32 µg/mL
Anti-bacterial activity (MIC) ([12]; strain BCA 14-8): > 32 µg/mL
Anti-bacterial activity (MIC) ([12]; strain BCA 14-10): > 32 µg/mL
Anti-bacterial activity (MIC), strain ECO+ 15-1 ([13]; clinical isolate ECO+ 15-1): > 32 µg/mL
Anti-bacterial activity (MIC), strain ECO+ 15-2 ([13]; clinical isolate ECO+ 15-2): > 32 µg/mL
Anti-bacterial activity (MIC), strain ECO+ 15-3 ([13]; clinical isolate ECO+ 15-3): > 32 µg/mL
Anti-bacterial activity (MIC), strain ECO+ 15-4 ([13]; clinical isolate ECO+ 15-4): > 32 µg/mL
Anti-bacterial activity (MIC), strain ECO− 15-1 ([13]; clinical isolate ECO− 15-1): > 32 µg/mL
Anti-bacterial activity (MIC), strain ECO− 15-2 ([13]; clinical isolate ECO− 15-2): > 32 µg/mL
Anti-bacterial activity (MIC), strain ECO− 15-3 ([13]; clinical isolate ECO− 15-3): > 32 µg/mL
Anti-bacterial activity (MIC), strain ECO− 15-4 ([13]; clinical isolate ECO− 15-4): > 32 µg/mL
